Values joined by “and” are separate entries in the source; they are usually repeats but may differ in a detail not shown here. Equal entries are not always repeated. Inconclusive results and toxic doses are left out. Rule as the data show it: active = T/C of 150% or more; inactive = T/C below 125%.
Tested on: L1210 leukemia ip in BDF1 mice, survival T/C
Test: NCI In Vivo Anticancer Drug Screen. Data for tumor model L1210 Leukemia (intraperitoneal) in B6D2F1 (BDF1) mice
Settings: endpoint: mean survival time, higher = longer survival
Method in brief: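 Tumor cells were implanted, animals were treated, and survival was followed. The result divides the treated measurement by the vehicle-control measurement.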

[1] = dose: 50.0 mg/kg/injection, schedule: Q01DX001 (ip), vehicle: carboxymethylcellulose (CMC)
[2] = dose: 100.0 mg/kg/injection, schedule: Q01DX001 (ip), vehicle: carboxymethylcellulose (CMC)
[3] = dose: 100.0 mg/kg/injection, schedule: Q01DX009 (ip), vehicle: saline with Tween-80
[4] = dose: 100.0 mg/kg/injection, schedule: Q04DX003 (ip), vehicle: saline with Tween-80
[5] = dose: 200.0 mg/kg/injection, schedule: Q01DX009 (ip), vehicle: saline with Tween-80
[6] = dose: 100.0 mg/kg/injection, schedule: Q04DX003 (ip), vehicle: Klucel (hydroxypropylcellulose) (HPC)
[7] = dose: 200.0 mg/kg/injection, schedule: Q04DX003 (ip), vehicle: Klucel (hydroxypropylcellulose) (HPC)
[8] = dose: 400.0 mg/kg/injection, schedule: Q04DX003 (ip), vehicle: Klucel (hydroxypropylcellulose) (HPC)
[9] = dose: 100.0 mg/kg/injection, schedule: Q01DX001 (ip), vehicle: saline
[10] = dose: 200.0 mg/kg/injection, schedule: Q01DX001 (ip), vehicle: saline
[11] = dose: 400.0 mg/kg/injection, schedule: Q01DX001 (ip), vehicle: saline
[12] = dose: 100.0 mg/kg/injection, schedule: Q04DX002 (ip), vehicle: Klucel (hydroxypropylcellulose) (HPC)
[13] = dose: 200.0 mg/kg/injection, schedule: Q04DX002 (ip), vehicle: Klucel (hydroxypropylcellulose) (HPC)
[14] = dose: 400.0 mg/kg/injection, schedule: Q04DX002 (ip), vehicle: Klucel (hydroxypropylcellulose) (HPC)
[15] = dose: 25.0 mg/kg/injection, schedule: Q01DX009 (ip), vehicle: Klucel (hydroxypropylcellulose) (HPC)
[16] = dose: 50.0 mg/kg/injection, schedule: Q01DX009 (ip), vehicle: Klucel (hydroxypropylcellulose) (HPC)
[17] = dose: 100.0 mg/kg/injection, schedule: Q01DX009 (ip), vehicle: Klucel (hydroxypropylcellulose) (HPC)

Measured: T/C

C/C(O)=C(\C#N)c1ccc(Cl)cc1
inactive: dose: 12.5 mg/kg/injection, schedule: Q01DX001 (ip), vehicle: carboxymethylcellulose (CMC) 100 % of control | dose: 12.5 mg/kg/injection, schedule: Q04DX003 (ip), vehicle: carboxymethylcellulose (CMC) 100 % of control and 104 % of control | dose: 25.0 mg/kg/injection, schedule: Q01DX001 (ip), vehicle: carboxymethylcellulose (CMC) 108 % of control | dose: 25.0 mg/kg/injection, schedule: Q01DX009 (ip), vehicle: carboxymethylcellulose (CMC) 103 % of control and 113 % of control | dose: 25.0 mg/kg/injection, schedule: Q04DX002 (ip), vehicle: carboxymethylcellulose (CMC) 99 % of control and 100 % of control | dose: 25.0 mg/kg/injection, schedule: Q04DX003 (ip), vehicle: carboxymethylcellulose (CMC) 98 % of control and 90 % of control | [1] 103 % of control and 111 % of control | dose: 50.0 mg/kg/injection, schedule: Q01DX009 (ip), vehicle: carboxymethylcellulose (CMC) 96 % of control and 100 % of control | dose: 50.0 mg/kg/injection, schedule: Q04DX002 (ip), vehicle: carboxymethylcellulose (CMC) 102 % of control and 103 % of control | dose: 50.0 mg/kg/injection, schedule: Q04DX003 (ip), vehicle: carboxymethylcellulose (CMC) 94 % of control and 98 % of control | [2] 97 % of control and 102 % of control | dose: 100.0 mg/kg/injection, schedule: Q01DX009 (ip), vehicle: carboxymethylcellulose (CMC) 94 % of control | dose: 100.0 mg/kg/injection, schedule: Q04DX002 (ip), vehicle: carboxymethylcellulose (CMC) 93 % of control and 90 % of control

CC(C)N(C(=O)c1ccc(C(=O)N(c2ccccc2)C(C)C)cc1)c1ccccc1
inactive: [3] 92 % of control | [4] 100 % of control | [5] 90 % of control | dose: 200.0 mg/kg/injection, schedule: Q04DX003 (ip), vehicle: saline with Tween-80 94 % of control | dose: 400.0 mg/kg/injection, schedule: Q01DX009 (ip), vehicle: saline with Tween-80 86 % of control | dose: 400.0 mg/kg/injection, schedule: Q04DX003 (ip), vehicle: saline with Tween-80 87 % of control

COC(=O)C1(O)CC(=O)CCC1c1ccccc1 (stereo not given)
inactive: [6] 105 % of control | [7] 94 % of control | [8] 95 % of control

CCCC[N+](C)(C)CCCOC(=O)C1C2CC3OC(=O)C1C3C2 (stereo not given)
inactive: dose: 12.5 mg/kg/injection, schedule: Q01DX003 (ip), vehicle: saline with Tween-80 97 % of control | dose: 25.0 mg/kg/injection, schedule: Q01DX003 (ip), vehicle: saline with Tween-80 100 % of control | dose: 50.0 mg/kg/injection, schedule: Q01DX003 (ip), vehicle: saline with Tween-80 97 % of control | dose: 50.0 mg/kg/injection, schedule: Q04DX003 (ip), vehicle: saline with Tween-80 101 % of control | [4] 103 % of control

C[n+]1csc2ccccc21
inactive: [9] 108 % of control | [10] 103 % of control | [11] 103 % of control

CCCCNC(=O)OCC
inactive: [1] 102 % of control | dose: 50.0 mg/kg/injection, schedule: Q01DX009 (ip), vehicle: saline with Tween-80 90 % of control | dose: 88.0 mg/kg/injection, schedule: Q01DX001 (ip), vehicle: carboxymethylcellulose (CMC) 104 % of control and 92 % of control | [2] 98 % of control | [3] 95 % of control | dose: 133.0 mg/kg/injection, schedule: Q01DX001 (ip), vehicle: carboxymethylcellulose (CMC) 93 % of control and 92 % of control | dose: 200.0 mg/kg/injection, schedule: Q01DX001 (ip), vehicle: carboxymethylcellulose (CMC) 93 % of control and 92 % of control | [5] 93 % of control | dose: 300.0 mg/kg/injection, schedule: Q01DX001 (ip), vehicle: carboxymethylcellulose (CMC) 96 % of control and 106 % of control | dose: 400.0 mg/kg/injection, schedule: Q01DX001 (ip), vehicle: carboxymethylcellulose (CMC) 102 % of control

COCn1c2ccccc2c2nc(-c3ccncc3)nc(-c3ccncc3)c21
inactive: [12] 98 % of control | [13] 98 % of control | [14] 95 % of control

N#Cc1c(-c2ccc(Cl)cc2)n(O)c2ccccc12
inactive: [9] 96 % of control | [10] 100 % of control | [11] 96 % of control

O=S(=O)(C/C(=N\O)c1ccccc1)C/C(=N/O)c1ccccc1
inactive: dose: 100.0 mg/kg/injection, schedule: Q04DX003 (ip), vehicle: saline 104 % of control | dose: 200.0 mg/kg/injection, schedule: Q04DX003 (ip), vehicle: saline 98 % of control | dose: 400.0 mg/kg/injection, schedule: Q04DX003 (ip), vehicle: saline 100 % of control

NN=O
inactive: [9] 97 % of control | [10] 101 % of control

O=C(NCCF)NC1C(O)OC(CO)C(O)C1O (stereo not given)
inactive: [9] 102 % of control | [10] 101 % of control | [11] 98 % of control

Cc1cn(C2CC(O)C(COP(=O)(N3CC3)N3CC3)O2)c(=O)[nH]c1=O (stereo not given)
inactive: dose: 50.0 mg/kg/injection, schedule: Q04DX002 (ip), vehicle: saline 107 % of control | dose: 100.0 mg/kg/injection, schedule: Q04DX002 (ip), vehicle: saline 100 % of control | dose: 200.0 mg/kg/injection, schedule: Q04DX002 (ip), vehicle: saline 94 % of control

CC(C)(N)CCC(C)(C)NCCCN
inactive: dose: 100.0 mg/kg/injection, schedule: Q01DX009 (ip), vehicle: water 95 % of control | dose: 100.0 mg/kg/injection, schedule: Q04DX003 (ip), vehicle: water 100 % of control | dose: 200.0 mg/kg/injection, schedule: Q01DX009 (ip), vehicle: water 98 % of control | dose: 200.0 mg/kg/injection, schedule: Q04DX003 (ip), vehicle: water 106 % of control | dose: 400.0 mg/kg/injection, schedule: Q04DX003 (ip), vehicle: water 97 % of control

CCOC(=O)/C(=C\c1ccccc1)P(=O)(OCC)c1ccccc1 (stereo not given)
inactive: [15] 91 % of control | [16] 92 % of control | [17] 96 % of control | [6] 95 % of control | [7] 96 % of control

O=C(NC(=S)Nc1ccccc1C(F)(F)F)c1ccccc1F
inactive: [17] 98 % of control and 103 % of control | [12] 105 % of control and 110 % of control | [6] 93 % of control | dose: 200.0 mg/kg/injection, schedule: Q01DX009 (ip), vehicle: Klucel (hydroxypropylcellulose) (HPC) 98 % of control and 111 % of control | [13] 105 % of control and 90 % of control | [7] 90 % of control | dose: 400.0 mg/kg/injection, schedule: Q01DX009 (ip), vehicle: Klucel (hydroxypropylcellulose) (HPC) 94 % of control and 108 % of control | [14] 94 % of control and 113 % of control | [8] 91 % of control

CC1=C(C)C2(C)C1(C)C1(C)C(C)=C(C)C21C (stereo not given)
inactive: dose: 100.0 mg/kg/injection, schedule: Q01DX009 (ip), vehicle: acetone 86 % of control | dose: 200.0 mg/kg/injection, schedule: Q01DX009 (ip), vehicle: acetone 86 % of control

CC1c2c(c(-c3ccccc3)c3ccccc3c2-c2ccccc2)S1(=O)=O (stereo not given)
inactive: dose: 25.0 mg/kg/injection, schedule: Q04DX002 (ip), vehicle: Klucel (hydroxypropylcellulose) (HPC) 99 % of control | dose: 50.0 mg/kg/injection, schedule: Q04DX002 (ip), vehicle: Klucel (hydroxypropylcellulose) (HPC) 96 % of control | [12] 94 % of control and 99 % of control and 111 % of control | [13] 94 % of control and 99 % of control and 114 % of control | [14] 99 % of control and 111 % of control

C=C(Cl)CN1CCCC(=O)c2ccccc21
inactive: dose: 100.0 mg/kg/injection, schedule: Q01DX009 (ip), vehicle: saline 100 % of control | dose: 200.0 mg/kg/injection, schedule: Q01DX009 (ip), vehicle: saline 94 % of control | dose: 400.0 mg/kg/injection, schedule: Q01DX009 (ip), vehicle: saline 96 % of control

Cc1ccc([S+](c2ccccc2)c2cc(C)ccc2C)cc1 (stereo not given)
inactive: dose: 2.5 mg/kg/injection, schedule: Q01DX001 (ip), vehicle: carboxymethylcellulose (CMC) 103 % of control | dose: 5.0 mg/kg/injection, schedule: Q01DX001 (ip), vehicle: carboxymethylcellulose (CMC) 102 % of control

Nc1cc([N+](=O)[O-])ccc1Nc1ccccc1
inactive: dose: 25.0 mg/kg/injection, schedule: Q01DX009 (ip), vehicle: DMSO 93 % of control | dose: 100.0 mg/kg/injection, schedule: Q04DX003 (ip), vehicle: DMSO 89 % of control

OCC1(CO)COC(c2ccccc2)OC1
inactive: [15] 101 % of control | [16] 101 % of control | dose: 50.0 mg/kg/injection, schedule: Q04DX003 (ip), vehicle: Klucel (hydroxypropylcellulose) (HPC) 97 % of control | [17] 108 % of control | [6] 90 % of control
